The record followed here is patent US7951815B2, “Substituted 1,4,8-triazaspiro [4,5]decan-2-one compounds” (Gruenenthal GmbH, priority 2004, dated 2011).

One experiment addresses T1, 5-HT transporter (Rattus norvegicus, UniProt P31652).
T1 construct: synaptosomes of rat brain areas are freshly isolated; from tissue; host or cells: rat brain synaptosomes (P2 fraction) from marrow and pons
The experiment in a line: Inhibition of 5-HT uptake in rat brain synaptosomes. Type of experiment: biochemical. The following applies: rat, 1 μM; for inhibition at 1 µM: read-out: Uptake 5-HT, % inhibition.

Experiment [1] relates to batrachotoxin (BTX) binding site of the sodium channel. As to the kind of experiment: Affinity to the batrachotoxin (BTX) binding site of the sodium channel. Particulars: rat cerebrocortex synaptosomes, test concentration not given.

Like-named read-outs stand apart in the source and are kept apart here.

T1 sequence (P31652 whole entry): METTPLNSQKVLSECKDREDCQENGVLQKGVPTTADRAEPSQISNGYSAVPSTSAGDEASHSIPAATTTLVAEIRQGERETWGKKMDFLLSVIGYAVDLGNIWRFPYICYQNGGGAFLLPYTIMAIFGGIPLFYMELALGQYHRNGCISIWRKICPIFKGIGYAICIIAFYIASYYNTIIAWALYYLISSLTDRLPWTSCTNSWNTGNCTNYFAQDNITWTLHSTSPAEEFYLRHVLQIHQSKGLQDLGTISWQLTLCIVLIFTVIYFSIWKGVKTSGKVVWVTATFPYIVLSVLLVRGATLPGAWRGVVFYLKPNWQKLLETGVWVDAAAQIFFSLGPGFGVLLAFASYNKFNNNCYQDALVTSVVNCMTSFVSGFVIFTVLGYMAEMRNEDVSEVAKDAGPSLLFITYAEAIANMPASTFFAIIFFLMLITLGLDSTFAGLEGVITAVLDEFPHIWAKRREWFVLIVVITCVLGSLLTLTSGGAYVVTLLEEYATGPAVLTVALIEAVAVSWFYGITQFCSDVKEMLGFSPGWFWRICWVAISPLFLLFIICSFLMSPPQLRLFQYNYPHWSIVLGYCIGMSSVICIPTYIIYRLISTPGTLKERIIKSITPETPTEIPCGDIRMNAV

`COc1ccc(CN2C(=O)[C@H](Cc3ccccc3)NC23CCN(C(=O)c2ccc(Cl)cc2)CC3)cc1.Cl` (racemic) [Example 27, 3-(S,R)-benzyl-8-(4-chloro-benzoyl)-1-(4-methoxy-benzyl)-1,4,8-triazaspiro[4,5]decan-2-one hydrochloride]: the “Uptake 5-HT, rat, 1 μM, % inhibition” value on 5-HT transporter (Table II) is on record as 78%. In experiment [1] (Table II), this compound returned a BTX inhibition of 79.
Taken in the same sequence, the figures for `CCC(CC)C(=O)N1CCC2(CC1)N[C@@H](Cc1ccccc1)C(=O)N2Cc1ccc(OC)cc1.Cl` (racemic) [Example 30, 3-(S,R)-benzyl-8-(2-ethylbutyryl)-1-(4-methoxybenzyl)-1,4,8-triazaspiro[4,5]decan-2-one hydrochloride] were 42% and 35.
The inhibition is the percentage by which the read-out fell short of the control. Turning to `Cl.O=C1[C@H](Cc2ccccc2)NC2(CCNCC2)N1Cc1ccccc1` [Example 38, 1,3-(S)-Dibenzyl-1,4,8-triazaspiro[4,5]decan-2-one hydrochloride], on 5-HT transporter (Table II), the inhibition at 1 µM was found to be 94%. In experiment [1] (Table II), this compound displayed a BTX inhibition of 87.
Taken in the same sequence, the figures for `Cl.O=C(c1cccc(F)c1F)N1CCC2(CC1)N[C@@H](Cc1ccccc1)C(=O)N2Cc1ccccc1` [Example 54, 1,3-(S)-dibenzyl-8-(2,3-difluorobenzoyl)-1,4,8-triazaspiro[4,5]decan-2-one hydrochloride] were 81% and 37.
On the same counts, the results for `Cl.O=C(CCc1ccccc1)N1CCC2(CC1)N[C@@H](Cc1ccccc1)C(=O)N2Cc1ccccc1` [Example 58, 1,3-(S)-dibenzyl-8-(3-phenylpropionyl)-1,4,8-triazaspiro[4,5]decan-2-one hydrochloride] are 46% and 46.
Taken in the same sequence, the figures for `Cl.O=C(c1ccc2ccccc2c1)N1CCC2(CC1)N[C@@H](Cc1ccccc1)C(=O)N2Cc1ccccc1` [Example 59, 1,3-(S)-dibenzyl-8-(naphthalin-2-carbonyl)-1,4,8-triazaspiro[4,5]decan-2-one hydrochloride] were 53% and 49.
Turning to `Cl.O=C(c1ccco1)N1CCC2(CC1)N[C@@H](Cc1ccccc1)C(=O)N2Cc1ccccc1` [Example 60, 1,3-(S)-dibenzyl-8-(furan-2-carbonyl)-1,4,8-triazaspiro[4,5]decan-2-one hydrochloride], the inhibition at 1 µM at 5-HT transporter (Table II) was 80%. For the same compound, the BTX inhibition in experiment [1] (Table II) was found to be 39.
Taken in the same sequence, the figures for `Cl.O=C(c1ccc(F)cc1)N1CCC2(CC1)N[C@@H](Cc1ccccc1)C(=O)N2Cc1ccccc1` [Example 62, 1,3-(S)-dibenzyl-8-(4-fluorobenzoyl)-1,4,8-triazaspiro[4,5]decan-2-one hydrochloride] were 87% and 48.
Turning to `CC(C)CC1NC2(CCN(C(=O)c3ccc(-c4ccccc4)cc3)CC2)N(Cc2ccc(F)cc2)C1=O` (stereo not drawn) [Example 101, 8-(Biphenyl-4-carbonyl)-1-(4-fluorobenzyl)-3-isobutyl-1,4,8-triazaspiro[4,5]decan-2-one], on 5-HT transporter (Table III), the inhibition at 1 µM was determined as 33%. For the same compound, in experiment [1] (Table III), the BTX inhibition is reported as 78.
Turning to `O=C(c1ccc(Br)cc1)N1CCC2(CC1)NC(Cc1ccccc1)C(=O)N2Cc1ccccc1` (stereo not drawn) [Example 105, 1,3-Dibenzyl-8-(4-bromobenzoyl)-1,4,8-triazaspiro[4,5]decan-2-one], at 5-HT transporter (Table III), the inhibition at 1 µM stood at 68%. In experiment [1] (Table III), this compound came in with a BTX inhibition of 66.
On the same counts, the results for `CCCCCC(=O)N1CCC2(CC1)NC(C(C)C)C(=O)N2CCCC` (stereo not drawn) [Example 129, 1-Butyl-8-hexanoyl-3-isopropyl-1,4,8-triazaspiro[4,5]decan-2-one] are 47% and 30.
Taken in the same sequence, the figures for `CCSc1ncccc1C(=O)N1CCC2(CC1)NC(Cc1ccccc1)C(=O)N2Cc1ccccc1` (stereo not drawn) [Example 145, 1,3-Dibenzyl-8-(2-ethylsulfanylpyridin-3-carbonyl)-1,4,8-triazaspiro[4,5]decan-2-one] were 89% and 64.
Turning to `Cc1onc(-c2c(F)cccc2Cl)c1C(=O)N1CCC2(CC1)NC(=O)C(C(C)C)N2` (stereo not drawn) [Example 149, 8-[3-(2-Chloro-6-fluorophenyl)-5-methylisoxazole-4-carbonyl]-3-isopropyl-1,4,8-triazaspiro[4,5]decan-2-one], the inhibition at 1 µM at 5-HT transporter (Table III) is 33%. The BTX inhibition in experiment [1] (Table III) was 33.
On to `CCCCN1C(=O)C(CCSC)NC12CCN(C(=O)C1COc3ccc(Cl)cc3C1)CC2` (stereo not drawn) [Example 150, 1-Butyl-8-(6-Chloro-2H-chroman-3-carbonyl)-3-(2-methylsulfanylethyl)-1,4,8-triazaspiro[4,5]decan-2-one], for which, at 5-HT transporter (Table III), the “Uptake 5-HT, rat, 1 μM, % inhibition” value was determined as 72%. Also, in experiment [1] (Table III), the BTX inhibition came out at 56.
With `Cc1nc(C(F)(F)F)ccc1C(=O)N1CCC2(CC1)NC(C(C)C)C(=O)N2CCOc1ccccc1` (stereo not drawn) [Example 167, 3-Isopropyl-8-(2-methyl-6-trifluoromethylpyridin-3-carbonyl)-1-(2-phenoxyethyl)-1,4,8-triazaspiro[4,5]decan-2-one], on 5-HT transporter (Table III), the inhibition at 1 µM was 52%. The compound also showed a BTX inhibition in experiment [1] (Table III) of 38.
On the same counts, the results for `Cc1nn(-c2ccccc2)nc1C(=O)N1CCC2(CC1)NC(Cc1ccccc1)C(=O)N2C` (stereo not drawn) [Example 168, 3-Benzyl-1-methyl-8-(5-methyl-2-phenyl-2H-[1,2,3]triazole-4-carbonyl)-1,4,8-triazaspiro[4,5]decan-2-one] are 46% and 44.
In turn, `CCCCC(=O)N1CCC2(CC1)NCC(=O)N2Cc1cccc(C#N)c1` [Example 268, 3-(2-Oxo-8-pentanoyl-1,4,8-triazaspiro[4,5]dec-1-ylmethyl)benzonitrile] had a BTX inhibition in experiment [1] (Table III) of 31.
Same read-out and setting: the value for `O=C(c1ccnc(Cl)c1)N1CCC2(CC1)NCC(=O)N2Cc1ccccc1F` [Example 300, 8-(2-Chloropyridin-4-carbonyl)-1-(2-fluorobenzyl)-1,4,8-triazaspiro[4,5]decan-2-one] was 33; that for `C=CCN1C(=O)C(CCSC)NC12CCN(C(=O)c1c(F)c(F)c(F)c(F)c1F)CC2` (stereo not drawn) [Example 302, 1-Allyl-3-(2-methylsulfanylethyl)-8-pentafluorobenzoyl-1,4,8-triazaspiro[4,5]decan-2-one] was 39.
The same measure, in the same setting: for `O=C(c1ccccc1C(F)(F)F)N1CCC2(CC1)NCC(=O)N2Cc1ccccc1F` [Example 303, 1-(2-Fluorobenzyl)-8-(2-trifluoromethylbenzoyl)-1,4,8-triazaspiro[4,5]decan-2-one] the value was 30; for `C=CCCC(=O)N1CCC2(CC1)NC(C(C)C)C(=O)N2CC=C` (stereo not drawn) [Example 307, 1-Allyl-3-isopropyl-8-pent-4-enoyl-1,4,8-triazaspiro[4,5]decan-2-one], 31; for `CCOC(=O)CN1C(=O)C(CCSC)NC12CCN(C(=O)c1ccc(C(F)(F)F)cc1)CC2` (stereo not drawn) [Example 322, Ethyl [3-(2-methylsulfanylethyl)-2-oxo-8-(4-trifluoromethylbenzoyl)-1,4,8-triazaspiro[4,5]dec-1-yl]acetate], 36.
For `CC(C)CC1NC2(CCN(C(=O)c3cc(C(F)(F)F)ccc3Cl)CC2)N(Cc2c(Cl)cccc2Cl)C1=O` (stereo not drawn) [Example 326, 8-(2-Chloro-5-trifluoromethylbenzoyl)-1-(2,6-dichlorobenzyl)-3-isobutyl-1,4,8-triazaspiro[4,5]decan-2-one], the BTX inhibition in experiment [1] (Table III) is 68.
